Read-outs that look alike come from different tables or passages of the source. Bounds are passed on as bounds.

Data on six molecules can be found in PMC4116331 (Journal of molecular biology, 2014).

Assay [1] deals with RT DNA polymerase activity (Human immunodeficiency virus type 1 group M subtype B, UniProt P04585). Put plainly: RT RNA-dependent DNA polymerase activity. In kind it is biochemical, HIV-1.
The target in assay [2] is RT-RNase H. As to conditions: read-out: IC50, RT-RNase H, cited from earlier work.
In assay [3] the test system is RT-RNase H. Put plainly: RT-RNase H inhibition of other RNHIs. The assay is classed as biochemical, HIV-1.
Where [4] appears, read: read-out: In vitro IC50 RT DNA pol, pH 7.4, 1 mM Mg2+.

Consider `COc1ccc(N2CCN(Cc3cc(=O)oc4c(O)c(O)ccc34)CC2)cc1.Cl.Cl` [Compound F3385-2588], for which the “Inhibition of the DNA polymerase activity of RT (in words)” value in assay [1] is reported as “did not inhibit”. For the same molecule, the IC50 in assay [1] (setting [4]) is more than 10000 nM.
Take manicol: the IC50 on RT-RNase H [2] was 600 nM.
`O=c1cc(CN2CCN(c3cccc(Cl)c3)CC2)c2ccc(O)c(O)c2o1` [Compound F3385-2590]: the IC50 in assay [1] (setting [4]) came to 2500 nM.
Still for that read-out and setting: the same measure for `O=c1cc(CN2CCN(C(c3ccccc3)c3ccccc3)CC2)c2ccc(O)c(O)c2o1` [Compound F3385-2581]: 2200 nM.
Turning to `O=C(O)Cc1cc(=O)oc2c(O)c(O)ccc12` [Compound F3284-8495, (7,8-dihydroxy-2-oxo-2H-chromen-4-yl)acetic acid], the IC50 in assay [1] is more than 10000 nM. In addition, in assay [1] (at 10 µM, the highest concentration tested), the “Inhibition of RT DNA polymerase activity” value is on record as “no detectable inhibition”.
With `CC(C)c1ccc(O)c(=O)c(O)c1` [β-Thujaplicinol, β-thujaplicinol], the “Fold greater activity than F3284-8495 against the RNase H of full-length RT” value in the assay with RT-RNase H [3] is “greater than 20 fold”. Also, the IC50 on RT-RNase H [2] (31) is 210 nM.

For orientation: IC50 means the concentration that gives 50% inhibition.
